From patent US8349851B2, “JAK kinase modulating compounds and methods of use thereof” (Ambit Biosciences Corp., priority 2009, dated 2013)

How the values were obtained:
[1] = biological target: T1, JAK3 (Homo sapiens, UniProt P52333); assay: Competition binding assay, JAK3; settings: read-out: Binding Assay: JAK3 (active_KD, ENZ)
T1 construct: made in house
From the text: (§1) Competition Binding Assay to Determine Binding Constants (Kd) of the Compounds Against JAK Kinases
(§2) Competition binding assays used herein were developed, validated and performed as described in Fabian et al., Nature Biotechnology 2005, 23,329-336. Kinases were produced as fusions to T7 phage (See, Fabian et al. or WO04/015142) or alternatively, the kinases were expressed in HEK-293 cells and subsequently tagged with DNA for PCR detection (See, WO08/005310). For the binding assays, streptavidin-coated magnetic beads were treated with biotinylated affinity ligands for 30 min at rt to generate affinity resins. The liganded beads were blocked with excess biotin and washed with blocking buffer (SeaBlock (Pierce), 1% BSA, 0.05% Tween 20, 1 mM DTT) to remove unbound ligand and to reduce non-specific binding. […] Test compounds were prepared as 100× stocks in DMSO and rapidly diluted into the aqueous environment. DMSO was added to control assays lacking a test compound. Primary screen interactions were performed in polypropylene 384-well plates in a final volume of 34 μL, while Kd determinations were performed in polystyrene 96-well plates in a final volume of 135 μL. […] The kinase concentration in the eluates was measured by quantitative PCR. Each kinase was tested individually against each compound. Kds were determined using eleven serial threefold dilutions. A selectivity score, which is a quantitative measure of selectivity of a compound against a panel of enzymes, may be calculated for a compound by dividing the number of enzymes for which a compound meets a set criteria, (for example, a binding constant of 100 nM or less), by the total number of enzymes tested.

[2] = biological target: T2, JAK2 (Homo sapiens, UniProt O60674); assay: Competition binding assay, JAK2; settings: read-out: Binding Assay: JAK2 (active_KD)
T2 construct: made in house
T2 sequence (O60674 849-1124 limits assumed): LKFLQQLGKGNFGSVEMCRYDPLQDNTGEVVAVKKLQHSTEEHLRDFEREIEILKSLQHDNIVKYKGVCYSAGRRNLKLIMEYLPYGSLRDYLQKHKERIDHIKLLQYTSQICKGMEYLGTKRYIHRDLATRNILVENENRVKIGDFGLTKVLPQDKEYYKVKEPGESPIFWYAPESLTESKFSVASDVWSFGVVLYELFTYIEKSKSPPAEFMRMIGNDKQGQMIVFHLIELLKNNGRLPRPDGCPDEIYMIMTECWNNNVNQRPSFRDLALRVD
From the text: as §1, §2

[3] = tested on: csTF-1 cells (GM-CSFR/JAK2/STAT5 pathway); assay: csTF-1 cell-based reporter assay; design: species or system human; settings: Homo sapiens; GM-CSF at 2 ng/mL, 4 hours; read-out: Cell Assay: CS0017: CS TF-1 reporter assay: IC50
Protocol: csTF-1 Cell-based Reporter Assay
csTF-1 cells are derived from the human erythroleukemia cell line that is growth dependent on GM-CSF and has an intact GM-CSFR/JAK2/STAT5 pathway. The cell line contains stably integrated beta-lactamase reporter gene under the control of the […] (irf 1) response element recognized by the activated transcription factor STATS. csTF-1 cells (Invitrogen K1219) were washed with assay media (97% OPTIMEM/0.5% dialyzed FBS/0.1 mM NEAA/1 mM Na pyr/P/S) and seeded in the same media at 5×10^5 cell/mL in T150 flask. After 16 hour incubation, cells were seeded at 2×10^5 cell/well in 50 μl volume, into Costar, clear bottom, 96-well assay plates. Serial dilutions of compounds were added to the plates with final DMSO concentration at 0.5% and GM-CSF at 2 ng/mL and the plates were then incubated at […] and 5% CO2 for 4 hours. The plates were brought to room temperature before adding Substrate Mixture according to manufacturer's protocol (Invitrogen, Catalog #K1085). The assay plates containing the substrate mixture were incubated in the dark at room temperature for 2 hours. Blue and green fluorescence was measured with excitation at 409 nm and emission at 460 nm (for blue) and excitation at 409 nm and emission at 530 nm (for green) using Spectra Max Gemini EM.

T1 sequence (P52333 822-1111 limits assumed): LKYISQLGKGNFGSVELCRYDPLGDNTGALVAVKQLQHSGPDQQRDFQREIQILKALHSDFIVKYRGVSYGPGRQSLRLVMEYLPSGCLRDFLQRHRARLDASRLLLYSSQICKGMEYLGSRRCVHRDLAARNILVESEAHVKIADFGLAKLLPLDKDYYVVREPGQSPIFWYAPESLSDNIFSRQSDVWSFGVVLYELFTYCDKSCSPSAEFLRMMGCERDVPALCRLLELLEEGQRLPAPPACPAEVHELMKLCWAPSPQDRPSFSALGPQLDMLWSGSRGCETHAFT

| SMILES | Kd [1] [nM] | Kd [2] [nM] | IC50 [3] [nM] |
| --- | --- | --- | --- |
| COc1cc(C(=O)c2nc(Nc3cc(C)[nH]n3)c3ccccc3n2)ccc1F [Example 76, (4-fluoro-3-methoxyphenyl)(4-(5-methyl-1H-pyrazol-3-ylamino)quinazolin-2-yl)methanone] | – | > 10 | – |
| OC(c1ccc(F)cc1)c1nc(Nc2cc[nH]n2)c2cc(F)ccc2n1 (racemic) [Example 55, (R,S)-(4-(1H-pyrazol-3-ylamino)-6-fluoroquinazolin-2-yl)(4-fluorophenyl)methanol] | > 100 | 1 to 10 | > 500 |
| O=C(c1ccc(F)cc1)c1nc(Nc2cc[nH]n2)c2ccc(I)cc2n1 [Example 22, (4-(1H-pyrazol-3-ylamino)-7-iodoquinazolin-2-yl)(4-fluorophenyl)methanone] | > 100 | 1 to 10 | 100 to 500 |
| Cc1cc(Nc2nc(C(=O)c3ccc(F)cc3)nc3ccc(F)cc23)n[nH]1 [Example 53, (6-fluoro-4-(5-methyl-1H-pyrazol-3-ylamino)quinazolin-2-yl)(4-fluorophenyl)methanone] | > 100 | 1 to 10 | 100 to 500 |
| COc1cc(Nc2nc(C(=O)c3ccc(F)cc3)nc3ccccc23)n[nH]1 [Example 73, (4-fluorophenyl)(4-(5-methoxy-1H-pyrazol-3-ylamino)quinazolin-2-yl)methanone] | 10 to 100 | ≤ 1 | 100 to 500 |
| Cc1ccc2c(Nc3cc[nH]n3)nc(C(F)(F)c3ccc(F)cc3)nc2c1 [Example 27, 2-(difluoro(4-fluorophenyl)methyl)-7-methyl-N-(1H-pyrazol-3-yl)quinazolin-4-amine] | 10 to 100 | ≤ 1 | ≤ 100 |
| Cc1cc(Nc2nc(C(NC=O)c3ccc(F)cc3)nc3ccccc23)n[nH]1 (stereo not shown) [Example 65, N-((4-fluorophenyl)(4-(5-methyl-1H-pyrazol-3-ylamino)quinazolin-2-yl)methyl)formamide] | 10 to 100 | ≤ 1 | 100 to 500 |
| Cc1cc(Nc2nc(C3(c4ccc(F)cc4)OCCO3)nc3ccccc23)n[nH]1 [Example 59, 2-(2-(4-fluorophenyl)-1,3-dioxolan-2-yl)-N-(5-methyl-1H-pyrazol-3-yl)quinazolin-4-amine] | 10 to 100 | ≤ 1 | ≤ 100 |
| OC(c1ccc(F)cc1)c1nc(Nc2cc[nH]n2)c2ccc(Br)cc2n1 (racemic) [Example 58, (R,S)-(4-(1H-pyrazol-3-ylamino)-7-bromoquinazolin-2-yl)(4-fluorophenyl)methanol] | > 100 | 1 to 10 | 100 to 500 |
| Cc1cc(Nc2nc(C(O)c3ccc(F)cc3)nc3c(F)cccc23)n[nH]1 (racemic) [Example 61, (R,S)-(8-fluoro-4-(5-methyl-1H-pyrazol-3-ylamino)quinazolin-2-yl)(4-fluorophenyl)methanol] | 10 to 100 | ≤ 1 | 100 to 500 |
| Cc1cc(Nc2nc(C(NC3CC3)c3ccc(F)cc3)nc3ccccc23)n[nH]1 (stereo not shown) [Example 69, 2-((cyclopropylamino)(4-fluorophenyl)methyl)-N-(5-methyl-1H-pyrazol-3-yl)quinazolin-4-amine] | 10 to 100 | ≤ 1 | 100 to 500 |
| Cc1cc(Nc2nc(C(CS(C)(=O)=O)c3ccc(F)cc3)nc3ccccc23)n[nH]1 (stereo not shown) [Example 70, 2-(1-(4-fluorophenyl)-2-(methylsulfonyl)ethyl)-N-(5-methyl-1H-pyrazol-3-yl)quinazolin-4-amine] | 10 to 100 | ≤ 1 | 100 to 500 |
| Cc1cc(Nc2nc(C(CC#N)c3ccc(F)cc3)nc3ccccc23)n[nH]1 (stereo not shown) [Example 68, 3-(4-fluorophenyl)-3-(4-(5-methyl-1H-pyrazol-3-ylamino)quinazolin-2-yl)propanenitrile] | 10 to 100 | 1 to 10 | ≤ 100 |
| Cc1cc(Nc2nc(C(=O)c3ccc(F)cc3)nc3cc(Br)ccc23)n[nH]1 [Example 56, (7-bromo-4-(5-methyl-1H-pyrazol-3-ylamino)quinazolin-2-yl)(4-fluorophenyl)methanone] | 10 to 100 | 1 to 10 | 100 to 500 |
| Cc1cc(Nc2nc(C(=O)c3ccc(F)cc3)nc3c(F)cccc23)n[nH]1 [Example 60, (8-fluoro-4-(5-methyl-1H-pyrazol-3-ylamino)quinazolin-2-yl)(4-fluorophenyl)methanone] | > 100 | 1 to 10 | 100 to 500 |
| Fc1ccc(C(F)(F)c2nc(Nc3cc[nH]n3)c3ccc(F)cc3n2)cc1 [Example 21, 2-(difluoro(4-fluorophenyl)methyl)-7-fluoro-N-(1H-pyrazol-3-yl)quinazolin-4-amine] | 10 to 100 | 1 to 10 | 100 to 500 |
| Cc1cc(Nc2nc(C(F)(F)c3ccc(F)cc3)nc3cc(CO)ccc23)n[nH]1 [Example 49, (2-(difluoro(4-fluorophenyl)methyl)-4-(5-methyl-1H-pyrazol-3-ylamino)quinazolin-7-yl)methanol] | ≤ 10 | ≤ 1 | ≤ 100 |

More lines, now with the values ahead:

| Kd [1] [nM] | Kd [2] [nM] | IC50 [3] [nM] | SMILES |
| --- | --- | --- | --- |
| 10 to 100 | 1 to 10 | > 500 | Cc1cc(Nc2nc(C(CCN)c3ccc(F)cc3)nc3ccccc23)n[nH]1 (stereo not shown) [Example 71, 2-(3-amino-1-(4-fluorophenyl)propyl)-N-(5-methyl-1H-pyrazol-3-yl)quinazolin-4-amine] |
| ≤ 10 | ≤ 1 | 100 to 500 | Cc1cc(Nc2nc(C(O)c3ccc(F)c(F)c3)nc3ccccc23)n[nH]1 (racemic) [Example 66, (R,S)-(3,4-difluorophenyl)(4-(5-methyl-1H-pyrazol-3-ylamino)quinazolin-2-yl)methanol] |
| ≤ 10 | ≤ 1 | 100 to 500 | Cc1cc(Nc2nc(C(O)c3ccc(F)c(Cl)c3)nc3ccccc23)n[nH]1 (stereo not shown) [Example 67, (3-chloro-4-fluorophenyl)(4-(5-methyl-1H-pyrazol-3-ylamino)quinazolin-2-yl)methanol] |
| – | – | ≤ 100 | [2H]C(O)(c1ccc(F)cc1)c1nc(Nc2cc(C)[nH]n2)c2ccccc2n1 (racemic) [Example 72, (R,S) (4-fluorophenyl)(4-(5-methyl-1H-pyrazol-3-ylamino)quinazolin-2-yl)methanol-1-d] |
| 10 to 100 | 1 to 10 | 100 to 500 | COc1ccccc1C(O)c1nc(Nc2cc(C)[nH]n2)c2ccccc2n1 (racemic) [Example 63, (R,S)-(2-methoxyphenyl)(4-(5-methyl-1H-pyrazol-3-ylamino)quinazolin-2-yl)methanol] |
| – | ≤ 1 | – | Cc1cc(Nc2nc(C(O)c3ccc(F)c(O)c3)nc3ccccc23)n[nH]1 (racemic) [Example 78, (R,S)-(2-fluoro-5-(hydroxy(4-(5-methyl-1H-pyrazol-3-ylamino)quinazolin-2-yl)methyl)phenol acetate] |
| – | 1 to 10 | 100 to 500 | Cc1cc(Nc2nc(C(O)c3ccc(F)cc3)nc3cc(Br)ccc23)n[nH]1 (stereo not shown) [Example 57, (7-bromo-4-(5-methyl-1H-pyrazol-3-ylamino)quinazolin-2-yl)(4-fluorophenyl)methanol] |
| – | ≤ 1 | – | CCc1cc(Nc2nc(C(O)c3ccc(F)cc3)nc3ccccc23)n[nH]1 (racemic) [Example 74, (R,S)-(4-(5-ethyl-1H-pyrazol-3-ylamino)quinazolin-2-yl)(4-fluorophenyl)methanol] |
| > 100 | 1 to 10 | 100 to 500 | Cc1cc(Nc2nc(C(O)c3ccc(F)cc3)nc3ccc(F)cc23)n[nH]1 (racemic) [Example 54, (R,S)-(6-fluoro-4-(5-methyl-1H-pyrazol-3-ylamino)quinazolin-2-yl)(4-fluorophenyl)methanol] |
| – | > 10 | – | Cc1cc(Nc2nc(C(=O)c3ccc(F)c(O)c3)nc3ccccc23)n[nH]1 [Example 77, (4-fluoro-3-hydroxyphenyl)(4-(5-methyl-1H-pyrazol-3-ylamino)quinazolin-2-yl)methanone] |
